Laboratory results reported in ChEMBL document CHEMBL1130518, “11,21-Bisphenyl-19-norpregnane derivatives are selective antiglucocorticoids” (Bioorg Med Chem Lett, 1997).

Legend:
[1] = molecular target: T1, Progesterone receptor (Homo sapiens) (UniProt P06401); test: Relative binding affinity for human progesterone receptor in MCF-7 cell cytosols compared to Org 2058; assay type: cell-based
T1 sequence (whole entry): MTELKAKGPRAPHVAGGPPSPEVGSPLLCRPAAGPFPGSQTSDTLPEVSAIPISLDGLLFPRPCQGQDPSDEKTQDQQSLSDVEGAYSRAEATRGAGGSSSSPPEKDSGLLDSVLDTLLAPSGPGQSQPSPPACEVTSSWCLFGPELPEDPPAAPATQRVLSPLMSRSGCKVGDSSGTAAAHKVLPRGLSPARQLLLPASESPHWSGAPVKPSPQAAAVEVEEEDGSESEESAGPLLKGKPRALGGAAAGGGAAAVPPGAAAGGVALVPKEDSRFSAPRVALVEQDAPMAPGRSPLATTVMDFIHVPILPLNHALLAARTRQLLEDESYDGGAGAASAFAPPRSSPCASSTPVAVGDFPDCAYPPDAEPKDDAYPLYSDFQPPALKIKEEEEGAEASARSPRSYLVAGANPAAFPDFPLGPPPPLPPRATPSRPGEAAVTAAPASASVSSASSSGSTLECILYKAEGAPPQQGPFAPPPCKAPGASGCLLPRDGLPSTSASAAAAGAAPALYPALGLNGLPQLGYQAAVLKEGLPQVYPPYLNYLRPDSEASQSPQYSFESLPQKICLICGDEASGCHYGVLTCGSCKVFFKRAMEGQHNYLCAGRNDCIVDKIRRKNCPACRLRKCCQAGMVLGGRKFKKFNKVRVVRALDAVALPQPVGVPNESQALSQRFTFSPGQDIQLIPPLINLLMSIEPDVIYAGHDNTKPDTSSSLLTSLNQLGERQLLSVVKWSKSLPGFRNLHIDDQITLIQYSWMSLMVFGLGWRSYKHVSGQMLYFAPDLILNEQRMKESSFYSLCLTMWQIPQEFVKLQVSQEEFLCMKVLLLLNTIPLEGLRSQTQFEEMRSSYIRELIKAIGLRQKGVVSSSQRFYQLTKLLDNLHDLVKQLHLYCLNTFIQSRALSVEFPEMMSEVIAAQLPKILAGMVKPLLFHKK

[2] = Ratio of compound to that of glucocorticoid receptor binding and progesterone receptor binding was determined

Compound | Affinity [1] | Ratio [2]
C[C@]12C[C@H](c3ccc4c(c3)OCO4)C3=C4CCC(=O)C=C4CCC3C1CC[C@@]2(O)C#Cc1ccc(S(C)(=O)=O)cc1 (some centres undefined) | 0.4% | 488
CC#C[C@]1(O)CC[C@H]2[C@@H]3CCC4=CC(=O)CCC4=C3[C@@H](c3ccc(N(C)C)cc3)C[C@@]21C | 36% | 5.4
C[C@]12C[C@H](c3ccc4c(c3)OCCO4)C3=C4CCC(=O)C=C4CCC3C1CC[C@@]2(O)C#Cc1ccc(N2CCCC2=O)cc1 (some centres undefined) | 0.2% | 490

Continued, values first:

Affinity [1] | Ratio [2] | Compound
2% | 44 | CN(C)c1ccc([C@H]2C[C@@]3(C)C(CC[C@@]3(O)C#Cc3ccc(S(C)(=O)=O)cc3)C3CCC4=CC(=O)CCC4=C32)cc1 (some centres undefined)
16% | 6 | CN(C)c1ccc([C@H]2C[C@@]3(C)C(CC[C@@]3(O)C#Cc3ccccc3)C3CCC4=CC(=O)CCC4=C32)cc1 (some centres undefined)
1.7% | 49 | CN(C)c1ccc(C#C[C@]2(O)CCC3C4CCC5=CC(=O)CCC5=C4[C@@H](c4ccc(N(C)C)cc4)C[C@@]32C)cc1 (some centres undefined)
6.1% | 1 | CN(C)c1ccc(/C=C/[C@]2(O)CCC3C4CCC5=CC(=O)CCC5=C4[C@@H](c4ccc(N(C)C)cc4)C[C@@]32C)cc1 (some centres undefined)
